Results from the NIST ThermoML archive (doi:10.1021/je020125e).
Numbers after ± are expanded uncertainties.

Conditions: 101.33 kPa, Liquid, Hot wire method

CCC(C)CC [3-methylpentane]
Conditions	thermal conductivity [W/m/K]	thermal diffusivity [m2/s]
256.68 K	0.1196 ± 0.00097	–
257 K	0.1195 ± 0.00097	–
257.43 K	0.1193 ± 0.00097	–
257.89 K	–	8.31e-08 ± 1.6e-09
258.67 K	–	8.27e-08 ± 1.6e-09
259.75 K	–	8.22e-08 ± 1.6e-09
276.71 K	0.1129 ± 0.00092	–
277.02 K	0.1128 ± 0.00092	–
277.46 K	0.1126 ± 0.00092	–
277.98 K	–	7.74e-08 ± 1.5e-09
278.74 K	–	7.71e-08 ± 1.5e-09
279.82 K	–	7.67e-08 ± 1.5e-09
296.39 K	0.1066 ± 0.00087	–
296.74 K	0.1065 ± 0.00087	–
297.2 K	0.1063 ± 0.00087	–
297.69 K	–	7.21e-08 ± 1.4e-09
298.55 K	–	7.2e-08 ± 1.4e-09
299.63 K	–	7.16e-08 ± 1.4e-09
314.22 K	0.1013 ± 0.00084	–
314.59 K	0.1012 ± 0.00083	–
315.08 K	0.101 ± 0.00083	–
315.57 K	–	6.8e-08 ± 1.3e-09
316.44 K	–	6.8e-08 ± 1.3e-09
317.58 K	–	6.75e-08 ± 1.3e-09
328.36 K	0.09736 ± 0.00081	–
328.75 K	0.09723 ± 0.0008	–
329.26 K	0.09705 ± 0.0008	–
329.73 K	–	6.51e-08 ± 1.3e-09
330.64 K	–	6.49e-08 ± 1.3e-09
331.82 K	–	6.44e-08 ± 1.3e-09
